The assay has as its system calcium ionophore-induced LTB4 biosynthesis. In words: Inhibition of calcium ionophore (A23187)-induced LTB4 biosynthesis in human whole blood. The class given is cell-based. The following applies: human heparinized whole blood; 15 min preincubation at 37° C.; A23187 8.3 μM, 30 minutes; LTB4 by radioimmunoassay; read-out: IC50, inhibition of leukotriene biosynthesis in human whole blood. On the procedure: Inhibition of leukotriene biosynthesis was evaluated in an assay, involving calcium ionophore-induced LTB4 biosynthesis expressed human whole blood. Human heparinized whole blood was preincubated with test compounds or vehicle for 15 rain at 37° C. followed by calcium ionophore A23187 challenge (final concentration of 8.3 μM) and the reaction terminated after 30 minutes by adding two volumes of methanol containing prostaglandin B2 as an internal recovery standard. The methanol extract was analyzed for LTB4 using a commercially available radioimmunoassay.

The IC50 is the concentration that inhibits the measured activity by half. As to `C[C@H](/C=C/c1ccc(Cc2ccc(F)cc2)s1)N(O)C(N)=O` [Example 2, E-(R)-N-[3-(5-(4-Fluorophenylmethyl)-thien-2-yl)-1-methyl-2-propenyl]-N-hydroxyurea], the IC50 came to 180 nM.

`C[C@H](/C=C\c1ccc(Cc2ccc(F)cc2)s1)N(O)C(N)=O` [Example 1, Z-(R)-N-[3-(5-(4-Fluorophenylmethyl)-thien-2-yl)-1-methyl-2-propenyl]-N-hydroxyurea]: the IC50 was 40 nM.

(Values after patent US5506261A, “Substituted aryl- and heteroarylalkenyl-N-hydroxyurea inhibitors of leukotriene biosynthesis” (Abbott Laboratories, priority 1994, dated 1996).)
